Measured values from patent US8305585B2, “Fiber-optic assay apparatus based on phase-shift interferometry” (Pall Corporation, priority 2003, dated 2012).

How the values were obtained:
[1] = test system: anti-Lewis Y antibody; test: Negative control: binding to immobilized irrelevant antibody; details: 200 μg/mL biotin
Protocol: Another negative control was carried out using an irrelevant antibody (anti-Lewis Y antibody from Calbiochem, San Diego Calif.; cat #434636) immobilized in an identical fashion to the anti-biotin antibody above. This immobilized antibody was exposed to a solution of 200 μg/mL biotin.

[2] = test system: mouse anti-biotin antibody; test: Small molecule binding to immobilized anti-biotin antibody on NHS-ester activated tip; details: biotin 200 μg/mL, sucrose 2 mg/mL in PBS; FIG. 10
Protocol: This example illustrates the binding of a low molecular weight molecule binding to an immobilized high molecular weight molecule. […] The tip was rinsed with PBS for 2 minutes. Following the PBS rinse, the tip was quenched with an aqueous solution of 100 μM ethanolamine pH 8.5 (Sigma-Aldrich Chemical Company, St Louis, Mo.; cat #E9508) for 5 minutes and then was rinsed again in PBS for 2 minutes.
Controls using a solution of sucrose (Sigma-Aldrich Chemical Company, St Louis, Mo.; cat #S8501) (2 mg/mL) and PBS were carried out on the second and the third fibers to determine baseline noise.

[3] = Sequential binding test on biotin-derivatized sensor tip; details: 50 μg/ml in PBS, 9 minutes; FIG. 6
Source text: The two-layer configuration on the tip of an optic fiber is used for this test. The thickness of the first Ta2O5 layer is 25 nm and the thickness of the second SiO2 layer is 770 nm. The fiber was purchased from Ocean Optics (Dunedin, Fla.). It was manually cut into segments that are 40 mm long. Both ends of these segments were polished to standard mirror surface quality. The polishing method used here was exactly the same as those for optical lenses and mirrors. One surface of these fiber segments was outsourced to an optical coating house for Ta2O5 layer and SiO2 layer. This vendor employed an ion-beam assisted physical vapor deposition (IAPVD) coater made by […] is a commonly used coating technique for anti-reflection and optical filters. The experimental steps included the following (all steps are performed at room temperature unless otherwise noted): The fiber tip was coated with a polymer monolayer derivatized with biotin. The polymer monolayer was prepared using a biotinylated lipid (custom). This lipid was using to form a lipid monolayer on the surface of water solution. The monolayer was cross linked using UV light for 15minutes. Clean, dry fibers were then brought in contact with the floating thin film and the biotin polymer was adsorbed onto the fiber tip. The fibers were then dryed at 60° C. for 1 hour. […]

| binding to immobilized biotin (7th order valley phase shift) [3] | Molecule | binding to irrelevant antibody [1] | change in optical thickness on exposure (binding) [2] |
| --- | --- | --- | --- |
| – | O=C(O)CCCC[C@@H]1SC[C@@H]2NC(=O)N[C@@H]21 [biotin] | lack of biotin binding | increase in optical thickness |
| – | OC[C@H]1O[C@@](CO)(O[C@H]2O[C@H](CO)[C@@H](O)[C@H](O)[C@H]2O)[C@@H](O)[C@@H]1O [sucrose] | – | no detectable increase over baseline |
| binding | streptavidin: streptavidin (Pierce Biotechnology, cat #21122) | – | – |
